From patent US20160376605A1, “WHEAT PLANTS HAVING INCREASED TOLERANCE TO IMIDAZOLINONE HERBICIDES” (BASF SE, priority 2003, published 2016) come the findings set out here.

Format in all cases: in vivo, Durum wheat
Experiment [1] deals with Fifteen Durum lines, each derived from a different M2 plant. Description: Greenhouse Trial: all fifteen mutagenesis-derived lines. The note with it: 100 and 160 g/ha imazamox. Here is the method: (§1) Fifteen Durum lines, each derived from a different M2 plant, and two wild type durum lines were evaluated for tolerance to the imidazolinone herbicide imazamox at rates of 100 and 160 g/ha in a greenhouse trial. Evaluations of tolerance were made at 14 and 21 days after treatment. Injury was scored on a 0-9 scale, with 0 representing no injury and 9 plant death.
A rate of 35 g/ha imazamox is adequate to kill susceptible Durum wheat.

The test system of a further experiment is Durum line UT15. Nature of the experiment: Greenhouse Trial: plant injury rating, imazamox. The note with it: 0-9 scale, 0 = no injury, 9 = plant death. Here is the method: as §1
For a further experiment, the system named is Durum line UTO3. Description: Greenhouse Trial: plant injury rating, imazamox. The note with it: 0-9 scale, 0 = no injury, 9 = plant death. Here is the method:
as §1

For another experiment, the system named is Durum line UT10. Description: Greenhouse Trial: plant injury rating, imazamox. The note with it: 0-9 scale, 0 = no injury, 9 = plant death. Here is the method:
as §1

With `COCc1cnc(C2=NC(C)(C(C)C)C(=O)N2)c(C(=O)O)c1` (stereo not shown) [imazamox], the tolerance to imazamox entry in experiment [1] is “excellent tolerance”. The “Average plant injury rating” value is recorded as 4.3 in the experiment on Durum line UT15 (imazamox 100 g/ha, 14 DAT); 2.7 in the experiment with Durum line UT15 (imazamox 100 g/ha, 21 DAT); 4.6 with Durum line UT15 (imazamox 160 g/ha, 14 DAT); 3.0 with Durum line UT15 (imazamox 160 g/ha, 21 DAT); 4.8 in the experiment on Durum line UTO3 (imazamox 100 g/ha, 14 DAT); 2.2 in the experiment with Durum line UTO3 (imazamox 100 g/ha, 21 DAT). Also, the “Average plant injury rating” value worked out at 5.2 in the experiment on Durum line UTO3 (imazamox 160 g/ha, 14 DAT); 2.8 with Durum line UTO3 (imazamox 160 g/ha, 21 DAT); 5.8 with Durum line UT10 (imazamox 100 g/ha, 14 DAT); 4.3 in the experiment with Durum line UT10 (imazamox 100 g/ha, 21 DAT); 6.5 with Durum line UT10 (imazamox 160 g/ha, 14 DAT); 5.1 in the experiment with Durum line UT10 (imazamox 160 g/ha, 21 DAT).
